Patent US20260294964A1, “PHARMACEUTICALS CONTAINING CHELATORS WITH STRONG ZN IONS-HOLDING FEATURE FOR THE TREATMENT OF SYMPTOMS AND DISEASES CAUSED BY MICROORGANISMS/DISEASES CAUSED BY TOXINS OR NEUROTOXINS/CANCER/SEVERAL SYNDROMES” (priority 2023, published 2026)
“Also recorded” adds a separate entry of the source. Read-outs that look alike come from different tables or passages of the source.

Assays:
[1] = test system: pathogenic microorganisms; assay: Inhibition/killing of pathogenic microorganisms in water with Boraras Micros fish infected from dead fish; assay type: in vivo; conditions: for appearance of water after 6 days / fish outcome after 6 days: 10 ppm Ampicillin / 20 ppm Bactrim / 100 ppm triethylenetetramine diethylenetriaminepentaacetate / 300 Mg EDTA / 600 ppm Ca EDTA / combinations as in label
[2] = Safety of Ca EDTA in adults; assay type: in vivo, human; conditions: 20 g for each time, 4 hours apart
[3] = test system: loss of taste in Covid 19; assay: Treatment of loss of taste in Covid 19; assay type: in vivo, human; conditions: solution containing 2% Ca EDTA sucked for a few minutes
Boraras Micros fish [4] = assay: Protection of Boraras Micros fish from CuCl2 by chelators; assay type: in vivo; conditions: 0.4 ppm CuCl2 + a few ppm to more than 10 ppm of chelator
Boraras Micros fish [5] = test system: Boraras Micros fish
[6] = test system: microorganisms that decompose organic matter (bacteria/fungi); assay: Culture of microorganisms that decompose organic matter; assay type: cell-based; conditions: media with growth promoting substances
[7] = Metallic Cu suspension test with 1% Na ascorbate (Cu ion complex formation); assay type: physicochemical; conditions: 0.1% CuCl2, alone or with several percent of chelator; excess 1% Na ascorbate
[8] = assay type: physicochemical, animal/human blood
[9] = test system: dry eyes/eye pain/red eyes; assay: Treatment of dry eyes/eye pain/red eyes; assay type: in vivo, human; conditions: 0.1% eye drops, 2 to 6 times a day
headache = assay: Treatment of headaches of unknown cause; assay type: in vivo, human; conditions: 0.5 g oral, adult
mice = assay type: in vivo, mouse; conditions: 0.3% in drinking water from 12 hours after flocoumafen
Boraras Micros fish [10] = assay: Neutralization of toxins/neurotoxins in Boraras Micros fish; assay type: in vivo
[11] = test system: toxins/neurotoxins; microorganisms; conditions: processed foods

O=C(O)CN(CCN(CC(=O)O)CC(=O)O)CC(=O)O.[Ca] [Ca EDTA, Ethylenediaminetetraacetic acid calcium]
appearance of water after 6 days ([1]; calcium): clear; also recorded: transparent | fish outcome after 6 days ([1]; calcium): lived; also recorded: did not die | amount used by adults in 24 hours without side effects [2]: under 120 g | recovery of sweet taste [3]: recover immediately afterwards | survival of fish in CuCl2 with chelator (Boraras Micros fish [4]): will not die after several weeks | survival of fish (Boraras Micros fish [5]; in vivo): lived for many days | time after which fish did not die (Boraras Micros fish [5]; in vivo): ≥ 10 days | toxicity / safety to host cells (Boraras Micros fish [5]; in vivo): highly safe | concentration at which proliferation of microorganisms is strongly inhibited [6]: 700 ppm

triethylenetetramine diethylenetriaminepentaacetate
appearance of metallic Cu suspension [7]: metallic Cu suspension will not appear | volume that completely dissolves Zn-blood complex suspension ([8]; concentration of solution not given, suspension from 1.4 ml 0.1% ZnCl2 in 100 ml 0.9% NaCl with 1% blood): 1.2 mL | amount needed to completely dissolve Zn-blood complex suspension, compared with lysine phosphate/lysine chloride/arginine phosphate/arginine chloride ([8]; suspension with 2 ppm ZnCl2): tens to hundreds of times lower | dry eyes/eye pain symptoms a few minutes after instilling [9]: no longer exist | red eyes symptoms [9]: decrease after a few hours | time until headache symptoms significantly reduced (headache): about 2 hours | appearance of water after 6 days [1]: clear; also recorded: transparent | fish outcome after 6 days [1]: lived; also recorded: did not die | concentration in host blood/tissue fluid/alveolar fluid above which ability to inhibit/kill pathogenic bacteria far exceeds Bactrim 10 ppm/Ampicillin 20 ppm ([1]; in vivo): above 60 ppm | survival of fish in CuCl2 with chelator (Boraras Micros fish [4]): will not die after several weeks | survival of mice fed flocoumafen (mice): after many days the mice still lived | survival of fish with Alpha Cypermethrin (Boraras Micros fish [10]; 0.2 ppm Alpha Cypermethrin + 50-300 ppm chelator): lived for many days | survival of fish with Methylamine Avermectin (Boraras Micros fish [10]; 0.2 ppm Methylamine Avermectin + 50-300 ppm chelator): lived for many days | survival of fish with Bromadiolone (Boraras Micros fish [10]; 0.3 ppm Bromadiolone + 50-300 ppm chelator): lived for many days | survival of fish with phenylperazole (Boraras Micros fish [10]; 1.0 ppm phenylperazole + 50-300 ppm chelator): lived for many days | survival of fish with flocoumafen (Boraras Micros fish [10]; 1.25 ppm flocoumafen + 50-300 ppm chelator): lived for many days (up to weeks) | survival of fish with Emamectin benzoate (Boraras Micros fish [10]; 2.5 ppm Emamectin benzoate + 50-300 ppm chelator): lived for many days | survival of fish with Nereistoxin (Boraras Micros fish [10]; 5 ppm Nereistoxin + 50-300 ppm chelator): lived for many days (up to weeks) | survival of fish (Boraras Micros fish [5]; 2000 ppm triethylenetetramine diethylnenepentaacetate / 3000 ppm Mg EDTA / 2000 ppm Cu EDTA / 12000 ppm Ca EDTA, mixtures at concentrations in label): lived for many days | concentration at which proliferation of microorganisms is strongly inhibited [6]: 100 ppm | concentration that inactivates toxins/neurotoxins while preventing proliferation of microorganisms [11]: over 30 ppm
